Measured values published in US7700284B2, “Reporter transcription unit populations and kits comprising same” (Attagene, Inc., priority 2004, dated 2010).

Legend:
[1] = tested on: c-Jun TAD RTU; experiment: MAPK pathway TAD RTU profiling in HEK293 cells, c-Jun TAD RTU; format: cell-based, human; conditions: HEK293, PMA 10 uM, 6 hours induction
[2] = tested on: Elk-1 TAD RTU (ERK1/2 pathway); experiment: MAPK pathway TAD RTU profiling in HEK293 cells, Elk-1 TAD RTU; format: cell-based, human; conditions: HEK293, PMA 10 uM, 6 hours induction, versus control cells
[3] = tested on: ATF2 TAD RTU; experiment: MAPK pathway TAD RTU profiling in HEK293 cells, ATF2 TAD RTU; format: cell-based, human; conditions: HEK293, PMA 10 uM, 6 hours induction
[4] = tested on: metal-sensitive MTΔ RTU; experiment: Multiplexed RTU reporter profiling in transfected HEK293 cells, MTΔ RTU; conditions: HEK293, 100 μM, 6 hrs stimulation, 11-RTU library
[5] = tested on: NF-κB RTU; experiment: Multiplexed RTU reporter profiling in transfected HEK293 cells, NF-κB RTU; conditions: HEK293, 100 u per ml, 6 hrs stimulation, 11-RTU library
[6] = biological target: GR RTU (Gal4DBD-GR fusion) (Homo sapiens, UniProt P04150); conditions: HEK293, 10 uM, 6 hrs induction, versus non-induced cells
Sequence of GR RTU (Gal4DBD-GR fusion) (P04150 486-777): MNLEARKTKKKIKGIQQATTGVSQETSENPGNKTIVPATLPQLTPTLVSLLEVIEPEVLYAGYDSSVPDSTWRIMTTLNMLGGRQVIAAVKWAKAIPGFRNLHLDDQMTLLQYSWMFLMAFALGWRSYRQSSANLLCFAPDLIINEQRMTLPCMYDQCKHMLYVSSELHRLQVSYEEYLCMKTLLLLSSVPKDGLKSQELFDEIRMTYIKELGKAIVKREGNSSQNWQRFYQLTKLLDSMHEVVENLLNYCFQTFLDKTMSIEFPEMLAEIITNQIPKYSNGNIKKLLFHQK

## CCCCCCCCCCCCCC(=O)O[C@@H]1[C@@H](C)[C@@]2(O)[C@@H](C=C(CO)C[C@@]3(O)C(=O)C(C)=C[C@@H]23)[C@@H]2C(C)(C)[C@]12OC(C)=O [PMA, 4α-Phorbol 12-myristate 13-acetate]
[1]
  activity of c-Jun TAD RTU: remained unchanged
[2]
  activation of the Elk-1 TAD RTU: ~20 fold
[3]
  activity of ATF2 TAD RTU: remained unchanged

## [Cl-].[Cl-].[Zn+2] [ZnCl2]
[4]
  induction of MTΔ RTU (stimulated versus nonstimulated cells): induced

## IL-1β: Human recombinant IL-1β purchased from Roche; NF-κB inducer
[5]
  activation of NF-κB RTU (stimulated versus nonstimulated cells): specifically activated

## dexamethasone [Dexamethazone]
[6]
  increase of reporter peak produced by GR RTU: 10 fold
